Results: EP1228058B1, “BENZOPYRANYL GUANIDINE DERIVATIVES, PROCESS FOR PREPARATION THEREOF, AND PHARMACEUTICAL COMPOSITIONS CONTAINING THEM” (Dongbu Hannong Chemical Co., Ltd., priority 1999, dated 2001)
Read-outs that look alike come from different tables or passages of the source.

Legend:
[1] = tested on: ischemic heart models of rats; assay: Heart protective (anti-ischemic) activity in ischemic heart models of anesthetized rats; format: in vivo; conditions: 45 min occlusion, 90 min reperfusion
Description: Male rats (350-450 g, obtained from the Experimental Animal Team of the Korea Research Institute of Chemical Technology) were anesthetized by the intraperitoneal injection of pentobarbital at a dose of 75 mg/kg. After trachetomy, the rats were rendered to respire artificially at a rate of 60/min with a stroke volume of 10 ml/kg. Cannulars were inserted into the fermoral vein and the fermoral artery and used for drug administration and blood pressure measurement, respectively.
In the ischemic myocardium damage models, the body temperature has an important influence on the results. To avoid the change in the body temperature, a body temperature measuring probe was inserted into the rectum of each rat and the body temperature was constantly kept at 37 °C with the aid of a homeothermic blanket control unit.
Afterwards, during testing, a continuous measurement was made of the mean arterial blood pressures and heart rates from the rats. For the measurement of the blood pressure, a pressure transducer, such as that manufactured by Grass Ins., MA, U.S.A., identified as Model Statham P23XL, was used. The heart rate was measured by a tachometer, such as that manufactured by Gould Inc., OH, U.S.A., identified as Biotachometer. In addition, all of the changes occurring were continuously recorded through the Gould 2000 chart recorder, manufactured by Gould Inc.
The left coronary artery was occluded according to the Selye H. method as follows. The rats underwent a left thoracotomy operation for partial opening of the chest and the right-side chest was pressurized by the middle finger of the left hand to push the heart out. Immediately after the left anterior descending coronary artery hereinafter referred to as (LAD) was carefully stitched using a suture needle with 5-0 silk ligature, the heart was then repositioned in the thoracic cavity while both ends of the ligature were situated outside. The opposite ligature ends were passed through a PE tube (PE100, 2.5 cm) and allowed to stand loose for 20 min for stabilization. Via the cannula inserted into the femoral vein, vehicles or drugs were administered into the rats which were rendered to stand for 30 min in order to sufficiently elicit the efficacies of the drugs. BMS-180448 was used as a control drug and the i.v.administration dose was 0.3 mg/kg for all test drugs of interest and the control drug.
Next, the PE tube which had the doubled strands of the ligature passed therethrough was pushed toward the heart and then, set upright by tightly pulling end regions of the ligature with a hemostatic pincette while pressing the coronary artery. The PE tube was allowed to stand for 45 min for the occlusion of the coronary artery, followed by the removal of the hemostatic pincette and then, by the reperfusion for 90 min.
After the reocclusion of the coronary artery in accordance with the above procedure, the rats were administered with 2 ml of a 1% Evans blue through an intravenous route. Subsequently, an excess of pentobarbital was intravenously injected to kill the rats, after which the heart was removed and then, deprived of the right ventricle and both atria. The left ventricle was cut horizontally to the heart apex into 5 or 6 slices which were weighed. From the surface of each slice, images were input with the aid of a Hi-scope into a computer installed with an image analyzing program (Image Pro Plus). From the images input into the computer, the area of the normal blood stream tissue region which appeared blue in a computer monitor and the area which appeared colorless were measured. The percentage of the colorless area to the total area of each slice was calculated and multiplied by the weight of each slice to determine the area at risk (AAR) of each slice. […]

[2] = tested on: rat brain homogenate; assay: Inhibition of iron-induced lipid peroxidation (MDA quantification); format: biochemical; conditions: 100 uM; FeCl2 400 uM, 37 °C, 30 min
Description: The rat brain was homogenized in a Krebs buffer (15 mM HEPES, 10 mM glucose, 140 mM NaCl, 3.6 mM KCl, 1.5 mM CaCl2, 1.4 mM KH2PO4, 0.7 mM MgCl2, pH 7.4) and the supernatant separated by centrifugation at 12,000 rpm for 10 min. was used for further experiments. FeCl2 was added to a final concentration of 400 uM in the brain homogenate which was then allowed to stand at 37 °C for 30 min. for the facilitation of oxidation. Each of the test compounds was added at a concentration of 100 uM and vehicle was used as a control.
Iron facilitates the oxidation of the brain homogenate to produce malondialdehyde (MDA), a lipid peroxidation product. Thus, the lipid peroxidation was determined by MDA quantification. The inhibitory effect of the test compounds against the lipid peroxidation was evaluated by calculating MDA reduction rate of the test compounds compared with that of the control group.
Typically, the MDA quantification is achieved by reacting samples with 2-thiobarbituric acid (TBA) and measuring the absorbance at 530 nm. However, this method is unsuitable to treat samples on a large scale because of a boiling step. Thus, in this experiment, N-methyl-2-phenylindole was used instead of TBA. […] Bioxytech^R LPO-586 Kit was used for MDA quantification.

[3] = tested on: HUVEC; assay: Inhibition of HUVEC tube formation on Matrigel; format: cell-based, Human; design: key: -: no effect; +/-: week effect; +: moderate effect; ++: strong effect
Description: HUVEC (Human umbilical vein endothelial cells, ATCC CRL-1730) were cultured, and tubulogenesis was induced in vascular endothelial cells by plating them onto the surface of Matrigel for several hours. The effects on tube formation of the test compounds were compared with the vehicle treated controls, then confirmed their in vitro anti-angiogenic effect indirectly.

[4] = tested on: HUVEC; assay: Inhibition of intracellular ROS induced by H2O2 (H2DCFDA) in HUVEC; format: cell-based, Human; conditions: Homo sapiens; for inhibition at 10 µM: Conc. 10^-5 M; for inhibition at 1 µM: Conc. 10^-6 M; for inhibition at 0.1 µM: Conc. 10^-7 M
Description: Measurement of intracellular ROS (Reactive Oxygen Species) was determined using H2DCFDA (2',7'-dichlorodihydrofluorescein diacetate, Molecular Probes, Eugene, OR, USA). H2DCFDA is a non-polar compound that readily diffused into cells, where it is hydrolyzed by intracellular esterase to polar derivative H2DCF (2',7'-dichlorodihydrofluorescein) which can not cross the cell membrane, and thereby trapped within the cell. H2DCF is low-fluorescent, but converted to high-fluorescent DCF (2',7'-dichlorofluorescein) by intracellular ROS. Therefore, the intracellular ROS formation can be determined from the amount of converted DCF. HUVEC (Human umbilical Vascular Endothelial Cells) or A7r5 (Rat thoracic aorta smooth muscle cells) were used. HUVEC were cultured in Kaighn's F12K medium supplemented with 10% heat-inactivated FBS, 0.1 mg/ml heparin sodium, 0.03-0.05 mg/ml ECGS (Endothelial cell growth supplement) and 1% antibiotics, and A7r5 were cultured in DMEM supplemented with 10% heat inactivated FBS and 1% antibiotics. To measure the intracellular ROS, HUVEC or A7r5 were preincubated for 30 min in the presence of test compounds (10^-7-10^-5 M). Thereafter, cells were stimulated with H2O2 (10^-6 and 10^-5 M for 20 min), and then incubated in the dark for 2 hr at 37 °C in 50 mM phosphate buffer (pH 7.4) containing 5 uM H2DCFDA. The quantity of DCF fluorescence (485 nm excitation, 530 nm emission) was measured using Fluorescence plate reader (FL600, Biotek Instruments).

[5] = read-out: Inhibition (%) H2O2 (10^-5M)
[6] = read-out: Inhibition (%) H2O2 (10^-6M)

Row | Structure (SMILES) | Anti-ischemic Activity (in vivo, rats) (0.3 mg/kg i.v.) IZ/AAR (%) [1] | % Inhibition [2] | Inhibitory Effects on Tube Formation ([3]; 100 uM) | Inhibitory Effects on Tube Formation ([3]; 10 uM) | inhibition at 10 µM [4, 5] | inhibition at 10 µM [4, 6] | inhibition at 1 µM [4, 5] | inhibition at 1 µM [4, 6] | inhibition at 0.1 µM [4, 5] | inhibition at 0.1 µM [4, 6]
1 | COC(OC)[C@@]1(C)Oc2ccc([N+](=O)[O-])cc2[C@H](NC(=NC#N)NCc2ccccc2)[C@H]1O [Example 24, (2S, 3R, 4S)-N''-cyano-N-(6-nitro-3,4-dihydro-3-hydroxy-2-methyl-2-dimethoxymethyl-2H-benzopyran-4-yl)-N'-benzylguanidine] | 48.48% | 12% | + | – | – | – | – | – | – | –
2 | COC(OC)[C@@]1(C)Oc2ccc([N+](=O)[O-])cc2[C@@H](NC(=NC#N)NCc2ccccc2)[C@@H]1O [Example 25, (2S, 3S, 4R)-N''-cyano-N-(6-nitro-3,4-dihydro-3-hydroxy-2-methyl-2-dimethoxymethyl-2H-benzopyran-4-yl)-N'-benzylguanidine] | 48.55% | 2% | – | – | – | – | – | – | – | –
3 | COC(OC)[C@@]1(C)Oc2ccc([N+](=O)[O-])cc2[C@H](NC(=NC#N)Nc2ccccc2Cl)[C@H]1O [Example 32, (2S, 3R, 4S)-N''-cyano-N-(6-nitro-3,4-dihydro-3-hydroxy-2-methyl-2-dimethoxymethyl-2H-benzopyran-4-yl)-N'-(2-chlorophenyl)guanidine] | 44.72% | 86% | – | – | – | – | – | – | – | –
4 | COC(OC)[C@@]1(C)Oc2ccc([N+](=O)[O-])cc2[C@@H](NC(=NC#N)NCc2ccccc2)[C@@H]1OC(C)=O [Example 38, (2S, 3S, 4R)-N''-cyano-N-(6-nitro-3,4-dihydro-3-acetoxy-2-methyl-2-dimethoxymethyl-2H-benzopyran-4-yl)-N'-benzylguanidine] | 51.13% | 4% | – | – | – | – | – | – | – | –
5 | COC(OC)[C@@]1(C)Oc2ccc(N)cc2[C@@H](NC(=NC#N)NCc2ccccc2)[C@@H]1O [Example 40, (2S, 3S, 4R)-N''-cyano-N-(6 - amino-3,4-dihydro-3-hydroxy-2-methyl-2-dimethoxymethyl-2H-benzopyran-4-yl)-N'-benzylguanidine] | 30.25% | 79% | ++ | + | 54.9% | 63.1% | 25.8% | 46.1% | 12% | 17.6%
